Reference: patent publication US20230015532A1, “PHARMACEUTICAL COMPOSITION, FOR PREVENTING OR TREATING FIBROSIS, COMPRISING PHEOPHORBIDE COMPOUND AS ACTIVE INGREDIENT” (PAEAN BIOTECHNOLOGY INC., priority 2019, published 2023)

Experiments:
Assay type in all cases: cell-based, human
[1] = system: collagen 1A in CCD8-Lu cells; assay: Comparison of anti-fibrotic activity by immunocytochemistry staining (Experimental Example 4.3); settings: 2.5 μM and 5 μM; 6 hours after 5 ng/ml TGF-β; fluorescence intensity
Experimental: A cell-based analysis experiment was performed to analyze the anti-fibrotic activity of pheophorbide a in comparison with nintedanib and pirfenidone, which were previously approved as a therapeutic agent for pulmonary fibrosis, using immunocytochemistry staining method. CCD8-Lu cells, which are human lung-derived fibroblasts, were cultured in the DMEM medium containing 10% FBS. About 2×10^4 cells were then inoculated into a 24 well plate and cultured for 24 hours, and subjected to the deficient condition in the DMEM medium from which FBS was removed for about 24 hours. After 24 hours, following the treatment with TGF-β at a concentration of 5 ng/ml, fibrosis of cells was induced for 6 hours. After 6 hours, the cells were treated with 2.5 μM or 5 μM of pheophorbide a, 1 μM of nintedanib, or 1 mM of pirfenidone. Immunohistochemistry analysis for each sample was performed as follows. First, the sample was washed twice with a PBS buffer, and then 4% formaldehyde was added to fix for 1 hour, and anti-collagen 1A was used as a primary antibody and Alexa Fluor 488 was used as a secondary antibody. The nuclei were stained using DAPI (4,6-diamidino-2-phenylindole) and the difference in the intensity of fluorescence was analyzed using a fluorescence microscope.

[2] = system: CCD8-Lu cells and LL-29 cells; assay: Cytotoxicity of pheophorbide a (WST-1 cell survival); settings: 72 hours, CCD8-Lu and LL-29
Experimental: In order to confirm the cytotoxicity of pheophorbide a obtained in Preparation Example 2, CCD8-Lu cells and LL-29 cells which are human lung-derived fibroblasts, were used. CCD8-Lu cells and LL-29 cells were inoculated into 96 well plates with […] cells/well and stabilized while culturing for 24 hours in a wet CO2 incubator at 37° C. The cultured cells were treated with different concentrations of pheophorbide a obtained in Preparation Example 2 and, 72 hours later, treated with the WST-1 reagent. After 1 hour, the survival rate of the cells was measured using a microplate reader (EZ Read 400, biochrom, UK) to determine the absorbance at 450 nm, and the toxicity was evaluated.
The cell survival rate as a result of the experiment is shown in FIG. 3 by expressing the percentage of the absorbance of the sample-treated group relative to the control group.

[3] = system: phosphorylated Smad3 and phosphorylated ERK in CCD8-Lu cells; assay: Western blotting of phosphorylated proteins of TGF-β signaling (Experimental Example 5); settings: 5 μM, 6 hours after 5 ng/ml TGF-β
Experimental: A cell-based assay experiment was performed using Western blotting assay to determine the effect of pheophorbide a on phosphorylation in the TGF-β signaling pathway. CCD8-Lu cells, which are human lung-derived fibroblasts, were cultured in the DMEM medium containing 10% FBS. About 2×10^5 cells were then inoculated into a 6 well plate, cultured for 24 hours, and subjected to the deficient condition in the DMEM medium from which FBS was removed for about 24 hours. 24 hours later, following the treatment with TGF-β at a concentration of 5 ng/ml, fibrosis of cells was induced for 6 hours. Then, the cells were treated with pheophorbide a obtained in Preparation Example 2 or the therapeutic agent for pulmonary fibrosis and further cultured for 18 hours. Then, the negative control group was treated with nothing, the positive control group was treated with TGF-β alone at a concentration of 5 ng/ml, and the experimental groups were treated with TGF-β at a concentration of 5 ng/ml and 6 hours later, with pheophorbide a at a concentration of 5 μM and nintedanib at a concentration of 1 μM, respectively. […] The separated supernatant was obtained and transferred to a new microtube and then the protein was quantified using a bicinchoninic acid assay (BCA assay) protein quantitative kit. […]

pheophorbide a was tested, and the “increased expression of collagen 1A induced by TGF-β” value [1] was “remarkably inhibited”, the cytotoxicity ([2]; concentration of 5 μM) was “about 25%” and the cytotoxicity ([2]; concentration of 10 μM) was “about 75%”. The cytotoxicity ([2]; up to a concentration of 2.5 μM) was “little cytotoxicity” and the “expression of phosphorylated Smad3 and phosphorylated ERK induced by TGF-β” value [3] was “remarkably inhibited”.
